Data published in PubChem BioAssay (NCI).
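Abbreviation: GI50, concentration required for 50% inhibition of growth. TGI is the concentration that stops growth completely.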

Columns and labels:
Experiment in all cases: NCI-60 cell line screen, 384-well format
A498 renal = system: A498 renal
HCT-116 colon = system: HCT-116 colon
HCT-15 colon = system: HCT-15 colon
HS 578T breast = system: HS 578T breast
MALME-3M melanoma = system: MALME-3M melanoma
MDA-MB-468 breast = system: MDA-MB-468 breast
NCI-H226 lung = system: NCI-H226 lung
NCI-H322M lung = system: NCI-H322M lung
NCI-H522 lung = system: NCI-H522 lung
OVCAR-8 ovarian = system: OVCAR-8 ovarian
SF-268 CNS = system: SF-268 CNS
SK-MEL-2 melanoma = system: SK-MEL-2 melanoma
UACC-257 melanoma = system: UACC-257 melanoma

In the case of `Cc1nc(NC(=O)N2CCC[C@H]2C(N)=O)sc1-c1ccnc(C(C)(C)C(F)(F)F)c1`, the GI50 (A498 renal) is reported as 8.13 µM, the TGI (A498 renal) is reported as 37.7 µM and the GI50 (HCT-116 colon) is reported as 7.62 µM. It also gave a TGI (HCT-116 colon) of 42.8 µM, a GI50 (HCT-15 colon) of 2.74 µM and a TGI (HCT-15 colon) of 27.8 µM. For the same compound, the GI50 (HS 578T breast) was 3.7 µM, the TGI (HS 578T breast) was 18.4 µM and the GI50 (MALME-3M melanoma) was 6.66 µM. For the same compound, the TGI (MALME-3M melanoma) was 29.4 µM, the GI50 (MDA-MB-468 breast) was 1.26 µM and the TGI (MDA-MB-468 breast) was 7.64 µM. The GI50 (NCI-H226 lung) was 8.88 µM, the TGI (NCI-H226 lung) was 32.5 µM and the GI50 (NCI-H322M lung) was 4.6 µM. For the same compound, the TGI (NCI-H322M lung) was 26.6 µM, the GI50 (NCI-H522 lung) was 4.78 µM and the TGI (NCI-H522 lung) was 23.8 µM. The GI50 (OVCAR-8 ovarian) was 14.3 µM, the TGI (OVCAR-8 ovarian) was 88.7 µM and the GI50 (SF-268 CNS) was 12.9 µM. It also gave a TGI (SF-268 CNS) of 61.2 µM, a GI50 (SK-MEL-2 melanoma) of 12.4 µM and a TGI (SK-MEL-2 melanoma) of 26.2 µM. For the same compound, the GI50 (UACC-257 melanoma) was 23 µM and the TGI (UACC-257 melanoma) was 70.3 µM.
`CC(=O)N1CC(F)(F)c2c(Sc3ncc(N4CCC5(CC4)COC[C@H]5N)nc3N)cccc21` gave a GI50 (A498 renal) of 2.75 µM, a TGI (A498 renal) of 20.8 µM and a GI50 (HCT-116 colon) of 16.2 µM. The TGI (HCT-116 colon) was 30 µM, the GI50 (HCT-15 colon) was 16.9 µM and the TGI (HCT-15 colon) was 31.8 µM. The GI50 (HS 578T breast) was 13.9 µM, the TGI (HS 578T breast) was 29.8 µM and the GI50 (MALME-3M melanoma) was 8.55 µM. For the same compound, the TGI (MALME-3M melanoma) was 20.8 µM, the GI50 (MDA-MB-468 breast) was 1.52 µM and the TGI (MDA-MB-468 breast) was 8.19 µM. For the same compound, the GI50 (NCI-H226 lung) was 2.48 µM, the TGI (NCI-H226 lung) was 41.9 µM and the GI50 (NCI-H322M lung) was 2.08 µM. It also gave a TGI (NCI-H322M lung) of 27.7 µM, a GI50 (NCI-H522 lung) of 1.56 µM and a TGI (NCI-H522 lung) of 14.5 µM. It also gave a GI50 (OVCAR-8 ovarian) of 11.9 µM, a TGI (OVCAR-8 ovarian) of 30.8 µM and a GI50 (SF-268 CNS) of 14.4 µM. It also gave a TGI (SF-268 CNS) of 48.7 µM, a GI50 (SK-MEL-2 melanoma) of 16.2 µM and a TGI (SK-MEL-2 melanoma) of 30.3 µM. The GI50 (UACC-257 melanoma) was 14.4 µM and the TGI (UACC-257 melanoma) was 27.6 µM.
